The text below walks through data of patent publication US20150291625A1 (PFIZER INC., priority 2012, published 2015).

Experiment [1] addresses T1, D1 (Homo sapiens, UniProt P21728). Kind of experiment: D1 cAMP HTRF assay (HEK293T/hD1#1 stable cell line). In kind it is cell-based. Also noted: expressed in transfected cells. The procedure, abridged: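 Cells from a stable human D1 HEK293T line in PBS/0.5 μM IBMX were incubated with compound for 30 min at room temperature, and cAMP was then detected by competitive HTRF (1 h, room temperature). A cAMP standard curve converted ratios to cAMP, giving ratio-based and cAMP-based EC50 values.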

The target in experiment [2] is T1, D1. Kind of experiment: Human D1 receptor binding assay ([3H]-SCH23390 competition).
Protocol: D1 binding assays were performed using over-expressing LTK human cell lines. […] These ligand and tissue concentrations were used in time course studies to determine linearity and equilibrium conditions for binding. Binding was at equilibrium with the specified amount of tissue in 30 minutes at 37° C. […] The pellet was resuspended in assay buffer (50 mM Tris (pH 7.4@ RT) containing 4 mM MgSO4 and 0.5 mM EDTA). […] After a 30 minute incubation period at 37° C., assay samples were rapidly filtered through Unifilter-96 GF/B PEI-coated filter plates and rinsed with 50 mM Tris buffer (pH 7.4 at 4° C.). […] Ki values were calculated according to the Cheng-Prusoff equation.
Where [3] appears, read: Human D1 Receptor Binding, Ki (nM), Geometric mean of 2-4 determinations, a: >=5 determinations, d: single determination.

SMILES strings stand for the structures. Values joined by “and” are separate entries in the source; they are usually repeats but may differ in a detail not shown here. Equal entries are not always repeated. Structures can show the parent of a compound that is named as a salt. Where two headings read alike, the source gives them in different places.

T1 sequence (P21728 whole entry): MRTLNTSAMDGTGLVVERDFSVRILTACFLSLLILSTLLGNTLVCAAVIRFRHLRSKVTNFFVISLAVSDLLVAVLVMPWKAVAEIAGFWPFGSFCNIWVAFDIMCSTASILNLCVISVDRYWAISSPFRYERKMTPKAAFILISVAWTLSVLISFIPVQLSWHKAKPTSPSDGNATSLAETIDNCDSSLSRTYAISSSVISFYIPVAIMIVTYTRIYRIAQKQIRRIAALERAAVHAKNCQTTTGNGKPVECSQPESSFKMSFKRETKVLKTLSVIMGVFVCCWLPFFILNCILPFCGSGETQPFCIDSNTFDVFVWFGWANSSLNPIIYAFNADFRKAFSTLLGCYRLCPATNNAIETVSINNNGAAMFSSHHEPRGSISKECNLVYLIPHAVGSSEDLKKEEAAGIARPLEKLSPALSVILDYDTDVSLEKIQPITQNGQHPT

With `Cc1cc(Oc2nccc3occc23)ccc1-c1c(C)ncnc1Cl` [Example 18, 4-[4-(4-chloro-6-methylpyrimidin-5-yl)-3-methylphenoxy]furo[3,2-c]pyridine], the EC50 at D1 [1] is 118 nM and 511 nM. The same molecule returned a Ki at D1 [2] (setting [3]) of 15.6 nM.

At D1 [1], `Cc1ncnc(C)c1-c1cc(F)c(Oc2nccc3occc23)cc1F` [Example 139, 4-[4-(4,6-dimethylpyrimidin-5-yl)-2,5-difluorophenoxy]furo[3,2-c]pyridine] registered an EC50 of 287 nM. The molecule also returned a Ki on D1 [2] (setting [3]) of 119 nM.

Consider `Cc1cc(Oc2nccc3occc23)ccc1-c1c(C)ncnc1N(C)C` [Example 87, 5-[4-(furo[3,2-c]pyridin-4-yloxy)-2-methylphenyl]-N,N,6-trimethylpyrimidin-4-amine], for which the EC50 at D1 [1] was 600 nM and 482 nM. The molecule also yielded a Ki on D1 [2] (setting [3]) of 22.5 nM.

As to `Cc1ncnc(C)c1-c1ccc(Oc2nccc3occc23)c(C)c1C` [Example 99, 4-[4-(4,6-dimethylpyrimidin-5-yl)-2,3-dimethylphenoxy]furo[3,2-c]pyridine], at D1 [1], the EC50 was 3040 nM and > 9950 nM. The same molecule displayed a Ki on D1 [2] (setting [3]) of 1370 nM.

As for `Cc1cc(Oc2nccc3occc23)ccc1-c1c(C)cnc2nccn12` (single isomer, unassigned) [Example 147, 5-[4-(furo[3,2-c]pyridin-4-yloxy)-2-methylphenyl]-6-methylimidazo[1,2-a]pyrimidine], at D1 [1], the midpoint of the response, the EC50, lay at 68 nM. The same molecule showed a Ki on D1 [2] (setting [3]) of 3.6 nM.

For `Cc1cc(Oc2nccc3occc23)ccc1-c1c(C)cnc2ncnn12` [Example 45, 7-[4-(furo[3,2-c]pyridin-4-yloxy)-2-methylphenyl]-6-methyl[1,2,4]triazolo[1,5-a]pyrimidine], on D1 [1], the EC50 was found to be 1140 nM. In addition, the affinity on D1 [2] (setting [3]), expressed as Ki, was 182 nM.

In turn, `Cc1cc(Oc2nccc3occc23)ccc1-c1cccc(=O)n1C` [Example 126, 6-[4-(furo[3,2-c]pyridin-4-yloxy)-2-methylphenyl]-1-methylpyridin-2(1H)-one] had an EC50 at D1 [1] of 546 nM. At D1 [2] (setting [3]), this molecule registered a Ki of 39.9 nM.

For `Cc1ncnc(C)c1-c1ccc(Oc2nccc3occc23)c2cccnc12` [Example 158, 8-(4,6-dimethylpyrimidin-5-yl)-5-(furo[3,2-c]pyridin-4-yloxy)quinoline], the EC50 on D1 [1] came out at 2690 nM. The molecule also had a Ki on D1 [2] (setting [3]) of 280 nM.

On D1 [1], `COc1cc(Oc2nccc3occc23)ccc1-c1cccnc1C` [Example 181, 4-[3-methoxy-4-(2-methylpyridin-3-yl)phenoxy]furo[3,2-c]pyridine] returned an EC50 of 803 nM. This molecule yielded a Ki on D1 [2] (setting [3]) of 53.1 nM.

As to `Cc1nc(N)ccc1-c1ccc(Oc2nccc3occc23)cc1Cl` [Example 90, 5-[2-chloro-4-(furo[3,2-c]pyridin-4-yloxy)phenyl]-6-methylpyridin-2-amine], a half-maximal response at D1 [1] (EC50) required 448 nM. At D1 [2] (setting [3]), this molecule registered a Ki of 25.4 nM.

`Cc1cc(Oc2nccc3occc23)ccc1-c1nc(=O)[nH]nc1C` [Example 177, 5-[4-(furo[3,2-c]pyridin-4-yloxy)-2-methylphenyl]-6-methyl-1,2,4-triazin-3(2H)-one]: the EC50 on D1 [1] was 2550 nM. The molecule further showed a Ki at D1 [2] (setting [3]) of 46.4 nM.

Take `COc1ccc(-c2ccc(Oc3nccc4occc34)cc2C)c(C)n1` [Example 60, 4-[4-(6-methoxy-2-methylpyridin-3-yl)-3-methylphenoxy]furo[3,2-c]pyridine, trifluoroacetate salt]: the EC50 on D1 [1] was 2910 nM and 1040 nM. The affinity at D1 [2] (setting [3]) corresponds to a Ki of 178 nM.

Regarding `Cc1cc(Oc2nccc3occc23)ccc1-c1c(C)ncnc1N1CCC[C@H]1CO` [Example 180, [(2S)-1-{5-[4-(furo[3,2-c]pyridin-4-yloxy)-2-methylphenyl]-6-methylpyrimidin-4-yl}pyrrolidin-2-yl]methanol, formate salt], on D1 [1], the EC50 was determined as 812 nM. Also, at D1 [2] (setting [3]), the Ki turned out to be 52.9 nM.

For `c1cc(-c2ccc(Oc3nccc4occc34)cc2OCc2cscn2)n2ccnc2c1` [Example 40, 4-[4-(imidazo[1,2-a]pyridin-5-yl)-3-(1,3-thiazol-4-ylmethoxy)phenoxy]furo[3,2-c]pyridine, trifluoroacetate salt], it took 1270 nM to reach a half-maximal effect at D1 [1] (EC50). The same molecule had an inhibition constant (Ki) at D1 [2] (setting [3]) of 107 nM.

`COc1nc(C)c(-c2ccc(Oc3nccc4occc34)cc2C)n2ccnc12` [Example 107, 5-[4-(furo[3,2-c]pyridin-4-yloxy)-2-methylphenyl]-8-methoxy-6-methylimidazo[1,2-a]pyrazine] returned an EC50 at D1 [1] of 669 nM. In addition, on D1 [2] (setting [3]), the Ki turned out to be 26.2 nM.

With `Cc1cc(Oc2nccc3occc23)ccc1-c1cncnc1C` [Example 58, 4-[3-methyl-4-(4-methylpyrimidin-5-yl)phenoxy]furo[3,2-c]pyridine], the EC50 on D1 [1] is 900 nM and 1110 nM. Further, the Ki at D1 [2] (setting [3]) worked out at 160 nM.

On to `Cc1ncnc(C)c1-c1ccc(Oc2nccc3occc23)c(F)c1` [Example 130, 4-[4-(4,6-dimethylpyrimidin-5-yl)-2-fluorophenoxy]furo[3,2-c]pyridine], for which the EC50 at D1 [1] turned out to be 1050 nM. Besides, the Ki on D1 [2] (setting [3]) stood at 73 nM.

At D1 [1], `COc1cc(Oc2nccc3occc23)ccc1-c1c(C)cnnc1C` [Example 169, 4-[4-(3,5-dimethylpyridazin-4-yl)-3-methoxyphenoxy]furo[3,2-c]pyridine] came in with an EC50 of 150 nM. Besides, at D1 [2] (setting [3]), the affinity, expressed as Ki, was 29.2 nM.

Turning to `Cc1cc(Oc2nccc3occc23)ccc1-c1nc(N)cnc1C` [Example 53, 6-[4-(furo[3,2-c]pyridin-4-yloxy)-2-methylphenyl]-5-methylpyrazin-2-amine, trifluoroacetate salt], the EC50 at D1 [1] was 953 nM. On D1 [2] (setting [3]), this molecule yielded an inhibitory constant (Ki) of 173 nM.

For the molecule `Cc1cc(Oc2nccc3occc23)ccc1-c1c(C)ncnc1C#N` (single isomer, unassigned) [Example 83, (−)-5-[4-(furo[3,2-c]pyridin-4-yloxy)-2-methylphenyl]-6-methylpyrimidine-4-carbonitrile], the EC50 on D1 [1] is 854 nM and 944 nM. On D1 [2] (setting [3]), this molecule had a Ki of 82.1 nM.

As to `Cc1cc(Oc2nccc3occc23)ccc1-c1c(C)nc(O)c2nccn12` (single isomer, unassigned) [Example 105, 5-[4-(furo[3,2-c]pyridin-4-yloxy)-2-methylphenyl]-6-methylimidazo[1,2-a]pyrazin-8-ol], a half-maximal response on D1 [1] (EC50) required 297 nM. On D1 [2] (setting [3]), the Ki came to 24.8 nM.

Turning to `Cc1cc(Oc2nccc3occc23)ccc1-c1cccc2nccn12` [Example 174, 4-[4-(imidazo[1,2-a]pyridin-5-yl)-3-methylphenoxy]furo[3,2-c]pyridine], on D1 [1], the EC50 was found to be 200 nM. Further, the Ki at D1 [2] (read-out: Human D1 Receptor Binding, Ki (nM), Geometric mean of 2-4 determinations, a: >=5 determinations, d: single determination) was 37.9 nM.

`COc1cc(Oc2nccc3occc23)ccc1-c1c(OC)ccc2cnccc12` [Example 94, 5-[4-(furo[3,2-c]pyridin-4-yloxy)-2-methoxyphenyl]-6-methoxyisoquinoline, formate salt]: on D1 [1], the EC50 stood at 837 nM. For the same molecule, the Ki on D1 [2] (setting [3]) was determined as 7.08 nM.

The molecule `Cc1cc(Oc2nccc3occc23)ccc1-c1c(C)cccc1C` [Example 89, 4-[(2,2′,6′-trimethylbiphenyl-4-yl)oxy]furo[3,2-c]pyridine, trifluoroacetate salt] yielded a concentration giving a half-maximal response (EC50) on D1 [1] of 1860 nM. Besides, at D1 [2] (setting [3]), the Ki was 123 nM.

`c1ccc2c(-c3cccc4nccn34)ccc(Oc3nccc4occc34)c2c1` [Example 30, 4-{[4-(Imidazo[1,2-a]pyridin-5-yl)naphthalen-1-yl]oxy}furo[3,2-c]pyridine, trifluoroacetate salt]: it took 2480 nM to reach a half-maximal effect on D1 [1] (EC50). At D1 [2] (setting [3]), this molecule showed a Ki of 220 nM.

`Cc1ncnc(C)c1-c1c(F)cc(Oc2nccc3occc23)cc1F` [Example 114, 4-[4-(4,6-dimethylpyrimidin-5-yl)-3,5-difluorophenoxy]furo[3,2-c]pyridine] registered an EC50 on D1 [1] of 103 nM. At D1 [2] (setting [3]), this molecule showed a Ki of 21.2 nM.

Molecule `Cc1ncnc(C)c1-c1ccc(Oc2nccc3occc23)cc1Cl` [Example 127, 4-[3-chloro-4-(4,6-dimethylpyrimidin-5-yl)phenoxy]furo[3,2-c]pyridine] returned a concentration giving a half-maximal response (EC50) on D1 [1] of 127 nM. The molecule also came in with a Ki on D1 [2] (setting [3]) of 14 nM.

Regarding `c1cc(-c2ccc(Oc3nccc4occc34)cc2)n2ccnc2c1` [Example 197, 4-[4-(imidazo[1,2-a]pyridin-5-yl)phenoxy]furo[3,2-c]pyridine], the EC50 at D1 [1] was 801 nM and 1090 nM. At D1 [2] (setting [3]), this molecule came in with a Ki of 97 nM.

On D1 [1], `Cc1ncnc(C)c1-c1ccc(Oc2nccc3occc23)c2cnn(C)c12` [Example 148, 4-{[7-(4,6-dimethylpyrimidin-5-yl)-1-methyl-1H-indazol-4-yl]oxy}furo[3,2-c]pyridine, trifluoroacetate salt] gave an EC50 of 777 nM. On D1 [2] (setting [3]), this molecule gave a Ki of 111 nM.

Turning to `c1cc(-c2ccc(Oc3nccc4sccc34)cc2)n2ccnc2c1` [Example 214, 4-[4-(imidazo[1,2-a]pyridin-5-yl)phenoxy]thieno[3,2-c]pyridine], the EC50 on D1 [1] came out at 457 nM. This molecule came in with a Ki at D1 [2] (setting [3]) of 67.6 nM.

On D1 [1], `COc1cc(Oc2nccc3occc23)ccc1-c1ccc(N)nc1C` [Example 191, 5-[4-(furo[3,2-c]pyridin-4-yloxy)-2-methoxyphenyl]-6-methylpyridin-2-amine, formate salt] yielded an EC50 of 1120 nM. Further, the Ki on D1 [2] (setting [3]) amounted to 85.8 nM.

`Cc1ncnc(C)c1-c1ccc(Oc2nccc3occc23)cc1CO` [Example 20, [2-(4,6-Dimethylpyrimidin-5-yl)-5-(furo[3,2-c]pyridin-4-yloxy)phenyl]methanol] yielded an EC50 on D1 [1] of 622 nM. Also, the Ki on D1 [2] (setting [3]) is 138 nM.

As to `Cc1cc(Oc2nccc3occc23)ccc1-c1c(C)nc2cnccn12` [Example 85, 3-[4-(furo[3,2-c]pyridin-4-yloxy)-2-methylphenyl]-2-methylimidazo[1,2-a]pyrazine], the EC50 at D1 [1] is 1120 nM and 4880 nM. The same molecule registered a Ki at D1 [2] (setting [3]) of 75.3 nM.

For the molecule `COc1ccc2cnccc2c1-c1ccc(Oc2nccc3occc23)cc1` [Example 168, 5-[4-(furo[3,2-c]pyridin-4-yloxy)phenyl]-6-methoxyisoquinoline, trifluoroacetate salt], on D1 [1], the EC50 turned out to be 458 nM. The Ki on D1 [2] (setting [3]) was found to be 28.6 nM.
